Assay results taken from patent publication US10131675B2 (Genentech, Inc., priority 2015, dated 2018).

The compounds below were run against DLK (Homo sapiens (Human), UniProt Q12852) (assay: DLK TR-FRET Inhibition Assay). Settings: N-terminally GST-tagged DLK (catalytic domain amino acid 1-520), MKK4 K131M substrate, 30 μM ATP; read-out: DLK HTRF Ki.
Format: biochemical
Outline: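 GST-tagged DLK catalytic domain (aa 1-520, 5 nM) phosphorylates 40 nM HIS-tagged MKK4 K131M with 30 μM ATP, pH 7.5, 60 min at ambient temperature; compounds 1:3 serial from 20 uM. Phospho-MKK4 detected by TR-FRET (Eu-cryptate anti-phospho-MKK4/D2 anti-HIS) after 3 h.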

DLK, sequence (Q12852 1-520): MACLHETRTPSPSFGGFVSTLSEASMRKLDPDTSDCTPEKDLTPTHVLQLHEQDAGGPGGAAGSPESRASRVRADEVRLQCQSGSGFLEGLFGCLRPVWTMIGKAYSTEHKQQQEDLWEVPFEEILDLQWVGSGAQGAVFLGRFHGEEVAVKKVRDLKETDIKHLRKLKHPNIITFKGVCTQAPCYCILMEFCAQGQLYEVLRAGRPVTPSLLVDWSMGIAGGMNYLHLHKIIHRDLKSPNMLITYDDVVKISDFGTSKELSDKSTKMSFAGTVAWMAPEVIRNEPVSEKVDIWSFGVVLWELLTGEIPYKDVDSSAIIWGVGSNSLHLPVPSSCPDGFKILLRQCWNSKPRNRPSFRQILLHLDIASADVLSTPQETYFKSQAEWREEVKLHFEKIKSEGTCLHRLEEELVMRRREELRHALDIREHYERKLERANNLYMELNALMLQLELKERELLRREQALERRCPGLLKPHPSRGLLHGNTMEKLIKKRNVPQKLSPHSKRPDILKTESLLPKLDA

SMILES | Ki [nM]
CC(C)N(c1nc(-c2cnc(N)nc2)nc2c1nc1n2CCOC1(C)C)C1CCC1 [Example 64, 2-(2-aminopyrimidin-5-yl)-N-cyclobutyl-N-isopropyl-6,6-dimethyl-8,9-dihydro-6H-[1,4]oxazino[4,3-e]purin-4-amine] | 267
CC1(C)OCCn2c1nc1c(N3CC(O)C3)nc(-c3cnc4[nH]cc(C(F)(F)F)c4c3)nc12 [Example 39, 1-[8,8-Dimethyl-3-(3-trifluoromethyl-1H-pyrrolo[2,3-b]pyridin-5-yl)-5,6-dihydro-8H-7-oxa-2,4,4b,9-tetraaza-fluoren-1-yl]-azetidin-3-ol] | 6.79
Cc1c[nH]c2ncc(-c3nc(N4CC(O)C4)c4nc5n(c4n3)CCOC5(C)C)cc12 [Example 32, 1-[8,8-Dimethyl-3-(3-methyl-1H-pyrrolo[2,3-b]pyridin-5-yl)-5,6-dihydro-8H-7-oxa-2,4,4b,9-tetraaza-fluoren-1-yl]-azetidin-3-ol] | 13.1
CC1(C)OCCn2c1nc1c(N3CC4CC3C4)nc(-c3cnc(N)c(Cl)c3)nc12 [Example 35, 5-[1-(2-Aza-bicyclo[2.1.1]hex-2-yl)-8,8-dimethyl-5,6-dihydro-8H-7-oxa-2,4,4b,9-tetraaza-fluoren-3-yl]-3-chloro-pyridin-2-ylamine] | 235
CCOc1cc(-c2nc(N3CCC(F)(F)C3)c3nc4n(c3n2)CCOC4(C)C)cnc1N [Example 78] | 558
CC1(C)OCCn2c1nc1c(N3CCCC3)nc(-c3cnc(N)nc3)nc12 [Example 18, 5-(8,8-Dimethyl-1-pyrrolidin-1-yl-5,6-dihydro-8H-7-oxa-2,4,4b,9-tetraaza-fluoren-3-yl)-pyrimidin-2-ylamine] | 402
CC1(C)OCCn2c1nc1c(OC3CCCC3)nc(-c3cnc(N)nc3)nc12 [Example 84, 5-(4-(cyclopentyloxy)-6,6-dimethyl-8,9-dihydro-6H-[1,4]oxazino[4,3-e]purin-2-yl)pyrimidin-2-amine] | 357
CC1(C)OCCn2c1nc1c(N3CC4CC3C4)nc(-c3cnc(N)c(C4CC4)c3)nc12 [Example 44, 5-[1-(2-Aza-bicyclo[2.1.1]hex-2-yl)-8,8-dimethyl-5,6-dihydro-8H-7-oxa-2,4,4b,9-tetraaza-fluoren-3-yl]-3-cyclopropyl-pyridin-2-ylamine] | 621
COC1CN(c2nc(-c3cnc4[nH]cc(C#N)c4c3)nc3c2nc2n3CCOC2(C)C)C1 [Example 41, 5-[1-(3-Methoxy-azetidin-1-yl)-8,8-dimethyl-5,6-dihydro-8H-7-oxa-2,4,4b,9-tetraaza-fluoren-3-yl]-1H-pyrrolo[2,3-b]pyridin-3-carbonitrile] | 30.8
COCC1CCCN1c1nc(-c2cnc(N)nc2)nc2c1nc1n2CCOC1(C)C (stereo not drawn) [Example 1, 5-(4-(2-(methoxymethyl)pyrrolidin-1-yl)-6,6-dimethyl-8,9-dihydro-6H-[1,4]oxazino[4,3-e]purin-2-yl)pyrimidin-2-amine] | 392
CC1(C)OCCn2c1nc1c(N3C[C@@H](F)[C@@H](F)C3)nc(-c3cnc(N)nc3)nc12 [Example 29, 5-[1-(cis-3,4-Difluoro-pyrrolidin-1-yl)-8,8-dimethyl-5,6-dihydro-8H-7-oxa-2,4,4b,9-tetraaza-fluoren-3-yl]-pyrimidin-2-ylamine] | 297
Nc1ncc(-c2nc(N3CC4CC3C4)c3nc4n(c3n2)CCO[C@H]4C(F)(F)F)cn1 (single isomer, unassigned) [Example 98] | 93.8
CC1(C)OCCn2c1nc1c(N3CC(F)C3)nc(-c3cnc4[nH]cc(C(F)(F)F)c4c3)nc12 [Example 45] | 9.87
CN(C)c1nc(-c2cnc3[nH]cc(C(F)(F)F)c3c2)nc2c1nc1n2CCCOC1 [Example 129, N,N-dimethyl-2-(3-(trifluoromethyl)-1H-pyrrolo[2,3-b]pyridin-5-yl)-6,8,9,10-tetrahydro-[1,4]oxazepino[4,3-e]purin-4-amine] | 1.64
CC1CCN(c2nc(-c3cnc(N)nc3)nc3c2nc2n3CCOC2(C)C)C1 (stereo not drawn) [Example 27, 5-[8,8-Dimethyl-1-(3-methyl-pyrrolidin-1-yl)-5,6-dihydro-8H-7-oxa-2,4,4b,9-tetraaza-fluoren-3-yl]-pyrimidin-2-ylamine] | 299
CCC(C)Oc1cc(-c2nc(N3CC(F)(F)C3)c3nc4n(c3n2)CCOC4(C)C)cnc1N (stereo not drawn) [Example 72] | 230
Cc1c[nH]c2ncc(-c3nc(N4CC5CC4C5)c4nc5n(c4n3)CCOC5(C)C)cc12 [Example 3, 1-(2-Aza-bicyclo[2.2.1]hex-2-yl)-8,8-dimethyl-3-(3-methyl-1H-pyrrolo[2,3-b]pyridin-5-yl)-5,6-dihydro-8H-7-oxa-2,4,4b,9-tetraaza-fluorene] | 4.92
CC1(C)OCCn2c1nc1c(N3CC4(CCCO4)C3)nc(-c3cnc(N)nc3)nc12 [Example 51, 5-[8,8-Dimethyl-1-(5-oxa-2-aza-spiro[3.4]oct-2-yl)-5,6-dihydro-8H-7-oxa-2,4,4b,9-tetraaza-fluoren-3-yl]-pyrimidin-2-ylamine] | 907
CC1(C)OCCn2c1nc1c(N3CC4CC3C4)nc(-c3cnc(N)nc3)nc12 [Example 46, 5-[1-(2-Aza-bicyclo[2.1.1]hex-2-yl)-8,8-dimethyl-5,6-dihydro-8H-7-oxa-2,4,4b,9-tetraaza-fluoren-3-yl]-pyrimidin-2-ylamine] | 130
COc1cc(-c2nc(N3CC4CC3C4)c3nc4n(c3n2)CCOC4(C)C)cnc1N [Example 57] | 200

The next lines start with the values.

Ki [nM] | SMILES
82.5 | C[C@@H]1Cn2c(nc3c(N4CC5CC4C5)nc(-c4cnc(N)nc4)nc32)C(C)(C)O1 (single isomer, unassigned) [Example 138]
30.8 | Nc1ncc(-c2nc(N3CC4CC3C4)c3nc4n(c3n2)CCCOC4)cc1OC(F)F [Example 135, 5-(4-(2-azabicyclo[2.1.1]hexan-2-yl)-6,8,9,10-tetrahydro-[1,4]oxazepino[4,3-e]purin-2-yl)-3-(difluoromethoxy)pyridin-2-amine]
307 | CC1(C)OCCn2c1nc1c(C3CC3)nc(-c3cnc(N)nc3)nc12 [Example 122]
1200 | CC(Oc1nc(-c2cnc(N)nc2)nc2c1nc1n2CCOC1(C)C)C1CC1 (stereo not drawn) [Example 155]
72.7 | CO[C@@H]1CC2CC1CN2c1nc(-c2cnc(N)nc2)nc2c1nc1n2CCOC1(C)C (single isomer, unassigned) [Example 140]
73.7 | COC1CN(c2nc(-c3cnc(N)c(OC(F)F)c3)nc3c2nc2n3CCOC2(C)C)C1 [Example 149]
1.25 | CC1(C)OCCn2c1nc1c(N3CC(C#N)C3)nc(-c3cnc4[nH]cc(Cl)c4c3)nc12 [Example 110, 1-(2-(3-chloro-1H-pyrrolo[2,3-b]pyridin-5-yl)-6,6-dimethyl-8,9-dihydro-6H-[1,4]oxazino[4,3-e]purin-4-yl)azetidine-3-carbonitrile]
60.1 | CC1(C)OCCn2c1nc1c(NC3CCCC3)nc(-c3cnc(N)nc3)nc12 [Example 123, 2-(2-aminopyrimidin-5-yl)-N-cyclopentyl-6,6-dimethyl-8,9-dihydro-6H-[1,4]oxazino[4,3-e]purin-4-amine]
1300 | CC1(C)OCCn2c1nc1c(N3CCC4(CCCO4)C3)nc(-c3cnc(N)nc3)nc12 (stereo not drawn) [Example 156]
177 | CC1(C)OCCCn2c1nc1c(N3CC4CC3C4)nc(-c3cnc(N)nc3)nc12 [Example 137, 5-(4-(2-azabicyclo[2.1.1]hexan-2-yl)-6,6-dimethyl-6,8,9,10-tetrahydro-[1,4]oxazepino[4,3-e]purin-2-yl)pyrimidin-2-amine]
